Our source for the outcome, EC50 and IC50 values is PubChem BioAssay AID179 (DTP/NCI, 2004).

This assay relates to CEM cells HIV-1 protection, formazan growth assay. Briefly: NCI AIDS Antiviral Assay. To be noted: for IC50: measured here: growth of uninfected CEM cells. Summed up: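 Human CEM cells, uninfected and HIV-1-infected, received five drug concentrations, and growth was read by soluble formazan assay. Compounds giving at least 50% protection were retested; reproducible 100% protection defined confirmed active.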

The source made the active and inactive calls.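 The calls were made as follows: active = compounds giving half or more protection of infected cells from virus-caused growth loss, again on retest; inactive = the rest.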 Some results are limits rather than exact numbers.

For `COc1ccc(C/C(=N/O)C(=O)NCCc2cc(Br)c(OCCCN(C)C)c(Br)c2)cc1Br`, the outcome was inactive. By EC50 is commonly meant the concentration at which the effect is half-maximal. What is called IC50 is the concentration that inhibits the measured activity by half. Low readings indicate inhibition by little substance, high ones a need for much substance. For the compound `O=[N+]([O-])c1cccc(N=Cc2ccc(Cl)cc2)c1`, the EC50 is greater than 200 µM and the IC50 turned out to be 123 µM. On the same counts, the results for `OC12CCC3(O)c4ccccc4C3C1c1ccccc12` (stereo unspecified) are greater than 200 µM and greater than 200 µM.

As to `O=c1nc(-c2ccccc2)c2c3c(cccn13)CCC2`, the result was inactive. As for `CCOC(=O)C1(C(N)=O)C(=O)c2ccncc2C1=O` (stereo unspecified), the EC50 was greater than 200 µM and the 50% inhibitory concentration (IC50) was greater than 200 µM. On to `CCN(CC)CCN1C(=O)c2cccc3cc(N)cc(c23)C1=O`, for which the EC50 was greater than 200 µM and the IC50 was 8.13 µM. For `COc1ccccc1NS(=O)(=O)c1ccc2ncn(NS(=O)(=O)c3ccc(Cl)cc3)c(=O)c2c1`, the outcome was inactive.

With `OCCNc1nc(Cl)nc(Cl)n1`, the EC50 was greater than 200 µM and the IC50 is greater than 200 µM.

With `COC(=N)C1(C#N)NC(c2ccsc2)C(C#N)(C#N)NC1c1ccsc1` (stereo unspecified), the EC50 is greater than 200 µM and the IC50 worked out at 56.2 µM. On to `CC[C@@]1(O)C(=O)OCc2c1cc1n(c2=O)Cc2cc3c(CN(C)C)c(O)ccc3nc2-1`, for which the result was inactive.

For the compound `c1ccc([C@H]2CN3CCSC3=N2)cc1`, the EC50 is greater than 200 µM and the IC50 is greater than 200 µM. Consider `O=C(c1nc2ccc(Cl)cc2[nH]c1=O)C(O)c1ccc2c(c1)OCO2` (stereo unspecified), for which the EC50 was greater than 501 µM and the IC50 stood at 24.5 µM. For `N#CSc1nc[nH]c1C(N)=O`, the EC50 was greater than 200 µM and the 50% inhibitory concentration (IC50) amounted to 10 µM. The matching figures for `C[C@]12CCC(=O)C=C1CC[C@@H]1[C@@H]2[C@@H](O)C[C@@]2(C)[C@H]1CC[C@]2(O)C(=O)COC(=O)CCC(=O)O`: greater than 200 µM and 6.03 µM. On the same counts, the results for `Cc1cc2c(cc1-c1cc3c(cc1C)C(C(C)C)=C(O)C(=O)/C3=C\Nc1c(C)n(C)n(-c3ccccc3)c1=O)/C(=C/Nc1c(C)n(C)n(-c3ccccc3)c1=O)C(=O)C(O)=C2C(C)C` are greater than 200 µM and 34.7 µM. For `O=C(NCCCCCCNC(=O)NCc1ccco1)NCc1ccco1`, the EC50 was greater than 14.5 µM and the IC50 is greater than 14.5 µM. As to `CC(C)(c1cn(Cc2ccccc2)c2ccccc12)c1cn(Cc2ccccc2)c2ccccc12`, the result was inactive. Regarding `COC(=O)/C=C\C(C#N)(C#N)N=Cc1ccsc1`, the EC50 is greater than 2 µM and the IC50 stood at 0.759 µM.

For the compound `CCCCCc1cc(O)c2c3c(c(=O)oc2c1)CP(=O)(c1ccccc1)CC3` (stereo unspecified), the EC50 is greater than 25.1 µM and the 50% inhibitory concentration (IC50) was found to be 19.1 µM. For `CCC1CN2CCc3cc(OC)c(OC)cc3C2CC1CC1c2cc(OC)c(OC)cc2CCN1C(=O)C1CCCN1C(=O)OCc1ccccc1` (stereo unspecified), the outcome was inactive. Take `COc1ccc2c(c1)OCC(O)(c1ccccc1)C2=O` (stereo unspecified): the EC50 is greater than 200 µM and the IC50 worked out at 155 µM. On the same counts, the results for `CCCCCCCCCCCCNC(=O)c1ccccc1[Se][Se]c1ccccc1C(=O)NCCCCCCCCCCCC` are greater than 3.55 µM and greater than 3.55 µM.

In the case of `CCN(CC)c1ccc(N=Nc2ccc(-c3nc4ccc[n+](C)c4s3)cc2)cc1`, the EC50 is greater than 7.08 µM and the IC50 was found to be 4.79 µM. For `O=C(O)CNc1cc(-c2ccccc2)nc(NCC(=O)O)n1`, the result was inactive. As to `COc1ccc(/C=C2/SC(=Nc3ccccc3)N(NC(=O)Cc3ccccc3)C2=O)c(OC)c1`, the EC50 is greater than 75.9 µM and the IC50 is greater than 75.9 µM. Take `CCOC(=O)c1c(SCCN2CCCCC2)n(-c2ccccc2)c(=S)n(-c2ccccc2)c1=O`: the EC50 was greater than 20 µM and the IC50 was greater than 20 µM. As for `O=C(Cn1c2ccc(Br)cc2c2nc3ccccc3nc21)N1CCOCC1`, the EC50 was greater than 100 µM and the IC50 was greater than 100 µM. For `N#Cc1ccccc1-c1nc2c3c(c(N)ccc3n1)C(=O)c1ccccc1-2`, the EC50 is greater than 200 µM and the concentration for half-maximal inhibition (IC50) came out at 40.7 µM. Consider `CC(=O)/C=C/CCC(=O)/C=C/C(=O)OC(CCC(=O)/C=C/C(=O)O)CC(C)=O` (stereo unspecified), for which the EC50 is greater than 200 µM and the IC50 came to 115 µM. For `CCOC(=O)C(O)(CC1=NC(C(=O)OC)(C(=O)OC)C(c2cccc(C=O)c2)O1)C(=O)OCC` (stereo unspecified), the EC50 is greater than 200 µM and the IC50 is greater than 200 µM. As to `O=C1C(Cl)=C(c2ccc(Cl)s2)C(=O)c2ccccc21`, the EC50 was greater than 42.7 µM and the IC50 was determined as 7.59 µM. The matching figures for `Cc1cc([N+](=O)[O-])c(C)c2c1[nH]c1ccc(O)cc12`: greater than 38.9 µM and 6.92 µM. With `N#CN=C(N)NC(=O)c1ccccc1`, the outcome was inactive. As for `COC(=O)CC(=O)/C(=C/C(C/C=C(\C(=O)CC(=O)OC)C(=O)OC)OC)C(=O)OC` (stereo unspecified), the EC50 is greater than 200 µM and the IC50 is greater than 200 µM. For `CN(C)CCCN1CCC2(CCSCC2)C1`, the EC50 is greater than 186 µM and the IC50 was found to be 87.1 µM. On the same counts, the results for `O=C(O)c1cccc2cccc(-c3c4ccc(=O)c(O)c-4oc4c(O)c(O)ccc34)c12` are 29.5 µM and 33.1 µM.

`CCOC(=O)C(CC1OCCO1)C1=NC(C)(C)CC(C)O1` (stereo unspecified): the EC50 is greater than 200 µM and the IC50 is greater than 200 µM.

In the case of `O=C1c2cccc3cc([N+](=O)[O-])cc(c23)C(=O)N1CCN1CCCC1`, the EC50 is greater than 200 µM and the IC50 stood at 0.0832 µM.

For `[N-]=[N+]=Nc1cc(=O)n(-c2ccccc2)c2ccccc12`, the result was inactive. As to `CCOC(=O)c1cc(C2(O)CCN(CC(C)CC)C2=O)c(-c2cc(C)no2)[nH]1` (stereo unspecified), the EC50 is greater than 200 µM and the IC50 was greater than 200 µM.

Regarding `O=C(Cc1ccccc1)ONC(CCCCNC(=O)OCc1ccccc1)C(=O)Nc1ccc(Cc2ccc(NC(=O)C(CCCCNC(=O)OCc3ccccc3)NC(=O)OCc3ccccc3)cc2)cc1` (stereo unspecified), the EC50 was greater than 100 µM and the IC50 is greater than 100 µM.

With `CCC1(CC)C(=O)N(C(=O)c2cc(OC)c(OC)c(OC)c2)N(C(=O)c2cc(OC)c(OC)c(OC)c2)C1=O`, the EC50 is greater than 200 µM and the IC50 was determined as 10.7 µM. With `c1onc2c1CCCC2` (tested in a mixture with another compound), the EC50 was greater than 1620 µM and the IC50 is greater than 1620 µM. With `O=C1C(O)=C(c2ccccc2)C(=O)C(O)=C1c1ccccc1`, the EC50 was greater than 85.1 µM and the IC50 stood at 43.7 µM. As for `CC(C)C[C@H]1[C@@H](OCc2ccccc2)COS(=O)N1[C@H](C)c1ccccc1` (stereo partly specified), the EC50 was greater than 200 µM and the concentration for half-maximal inhibition (IC50) was determined as 9.55 µM. On to `CCOP1(OCC)(SSC)OC(=O)C(C)S1` (stereo unspecified), for which the EC50 was greater than 813 µM and the half-maximal inhibitory concentration (IC50) amounted to 617 µM. The matching figures for `O=C(N/C(=C\c1ccc([N+](=O)[O-])cc1)c1nc2ccccc2s1)c1ccccc1`: greater than 32.4 µM and greater than 32.4 µM. In the case of `Nn1c(-c2cccc(Cl)c2)nc2ccccc2c1=O`, the outcome was inactive. For `COc1cc(-c2ccc(N=Nc3ccc4c(S(=O)(=O)O)cc(S(=O)(=O)O)c(N)c4c3O)c(OC)c2)ccc1N=Nc1ccc2c(S(=O)(=O)O)cc(S(=O)(=O)O)c(N)c2c1O`, the EC50 is 5.01 µM, the result was active and the 50% inhibitory concentration (IC50) was 49 µM. As for `C[C@]12C[C@@H](c3ccccc3)Nc3ccccc3N1C(c1ccccc1)=NO2`, the EC50 was greater than 200 µM and the half-inhibitory concentration (IC50) was found to be 30.9 µM.
